In brackets after ≈: the same amount, converted by molar mass. *1 amine or outer side, *2 acyl side, *3 side chain or, on linkers, in order; H or OH if unused. Where a SMILES comes first, the peptide text is derived from it. [ ]: non-standard residue; d: D form. X2 = Cn1c(=O)n([C@@H]2S[C@H]([C@@H](O)[C@@H](N[*:1])C(=O)[*:2])[C@H](O)[C@H]2O)cc/c1=N/C(N)=O; Orn(N5-OH,N5-Ac) = CC(=O)N(O)CCC[C@H](N)C(=O)O
Assays:
Format in all cases: functional
[1] = tested on: Staphylococcus aureus; assay: Antimicrobial activity against methicillin-resistant Staphylococcus aureus ATCC 33591 assessed as microbial growth inhibition
[2] = tested on: Staphylococcus aureus; assay: Antimicrobial activity against vancomycin intermediate Staphylococcus aureus assessed as microbial growth inhibition
[3] = tested on: Enterococcus faecium; assay: Antimicrobial activity against vancomycin-resistant Enterococcus faecium ATCC 51559 assessed as microbial growth inhibition
[4] = tested on: Enterococcus faecalis; assay: Antimicrobial activity against vancomycin-resistant Enterococcus faecalis ATCC 51575 assessed as microbial growth inhibition
[5] = tested on: Acinetobacter baumannii; assay: Antimicrobial activity against Acinetobacter baumannii ATCC 17961 assessed as microbial growth inhibition
[6] = tested on: Acinetobacter baumannii; assay: Antimicrobial activity against Acinetobacter baumannii ATCC BAA 1800 assessed as microbial growth inhibition
[7] = tested on: Acinetobacter baumannii; assay: Antimicrobial activity against Acinetobacter baumannii ATCC BAA 1793 assessed as microbial growth inhibition
[8] = tested on: Acinetobacter baumannii; assay: Antimicrobial activity against Acinetobacter baumannii ARC 3486 assessed as microbial growth inhibition
[9] = tested on: Acinetobacter baumannii; assay: Antimicrobial activity against Acinetobacter baumannii ARC 3484 assessed as microbial growth inhibition
[10] = tested on: Acinetobacter baumannii; assay: Antimicrobial activity against Acinetobacter baumannii ARC 5081 assessed as microbial growth inhibition
[11] = tested on: Acinetobacter baumannii; assay: Antimicrobial activity against Acinetobacter baumannii ATCC 17978 pNT165 producing carbapenamase assessed as microbial growth inhibition
[12] = tested on: Acinetobacter baumannii; assay: Antimicrobial activity against Acinetobacter baumannii ATCC 17978 assessed as microbial growth inhibition
[13] = tested on: Acinetobacter baumannii; assay: Antimicrobial activity against Acinetobacter baumannii ATCC 17978 pNT320 producing cephalosporinase assessed as microbial growth inhibition
[14] = tested on: Acinetobacter baumannii; assay: Antimicrobial activity against Acinetobacter baumannii ATCC BAA 1797 assessed as microbial growth inhibition
[15] = tested on: Acinetobacter baumannii; assay: Antimicrobial activity against Acinetobacter baumannii ATCC 17978 pNT221 assessed as microbial growth inhibition
[16] = tested on: Acinetobacter baumannii; assay: Antimicrobial activity against Acinetobacter baumannii ARC 5079 assessed as microbial growth inhibition
[17] = tested on: Acinetobacter baumannii; assay: Antimicrobial activity against Acinetobacter baumannii ATCC BAA 1710 assessed as microbial growth inhibition
[18] = tested on: Acinetobacter baumannii; assay: Antimicrobial activity against Acinetobacter baumannii ATCC 17978 pNT255 assessed as microbial growth inhibition
[19] = tested on: Pseudomonas aeruginosa; assay: Antibacterial activity against Pseudomonas aeruginosa Pa4 assessed as microbial growth inhibition incubated for 20 hrs in iron depleted media by CLSI protocol based broth microdilution method
[20] = tested on: Pseudomonas aeruginosa; assay: Antibacterial activity against Pseudomonas aeruginosa KW799/61 assessed as microbial growth inhibition incubated for 20 hrs in iron depleted media by CLSI protocol based broth microdilution method
[21] = tested on: Pseudomonas aeruginosa; assay: Antibacterial activity against Wild type Pseudomonas aeruginosa KW799 assessed as microbial growth inhibition incubated for 20 hrs in iron depleted media by CLSI protocol based broth microdilution method
[22] = tested on: Pseudomonas aeruginosa; assay: Antibacterial activity against Pseudomonas aeruginosa PAO1 assessed as microbial growth inhibition incubated for 20 hrs in iron depleted media by CLSI protocol based broth microdilution method
[23] = tested on: Salmonella typhimurium; assay: Antimicrobial activity against Salmonella enterica subsp. enterica serovar Typhimurium assessed as increase in microbial growth inhibition
[24] = tested on: Salmonella enteritidis; assay: Antimicrobial activity against Salmonella enterica subsp. enterica serovar Enteritidis assessed as increase in microbial growth inhibition
[25] = tested on: Mycobacterium tuberculosis; assay: Antimicrobial activity against Mycobacterium tuberculosis H37Rv assessed as microbial growth inhibition
[26] = tested on: Streptococcus pneumoniae; assay: Antimicrobial activity against Streptococcus pneumoniae assessed as microbial growth inhibition
[27] = tested on: Bacillus subtilis; assay: Antimicrobial activity against Bacillus subtilis assessed as microbial growth inhibition
[28] = tested on: Staphylococcus aureus; assay: Antimicrobial activity against Staphylococcus aureus assessed as microbial growth inhibition
[29] = tested on: Escherichia coli; assay: Antimicrobial activity against Escherichia coli assessed as microbial growth inhibition
[30] = tested on: Acinetobacter baumannii; assay: Antimicrobial activity against Acinetobacter baumannii ATCC 17978 assessed as microbial growth inhibition under iron-deficient condition

CN[C@H](CC(C)C)C(=O)N[C@H]1C(=O)N[C@@H](CC(N)=O)C(=O)N[C@H]2C(=O)N[C@H]3C(=O)N[C@H](C(=O)N[C@H](C(=O)NCCCNC(=O)[C@H](O)[C@@H](O)[C@H](O[C@H]4O[C@@H](CO)[C@@H](O)[C@@H](O)[C@@H]4O)[C@H](O)CO)c4cc(O)cc(O)c4-c4cc3ccc4O)[C@H](O)c3ccc(c(Cl)c3)Oc3cc2cc(c3O[C@@H]2O[C@H](CO)[C@@H](O)[C@H](O)[C@H]2O[C@H]2C[C@](C)(N)[C@H](O)[C@H](C)O2)Oc2ccc(cc2Cl)[C@H]1O
MIC [1]: 0.4 µM (≈ 0.738 µg/mL) | MIC [2]: 0.3 µM (≈ 0.554 µg/mL) | MIC [3]: 36 µM (≈ 66.4 µg/mL) | MIC [4]: 30 µM (≈ 55.4 µg/mL)

CCCCCCCCCC(=O)N[C@@H](Cc1c[nH]c2ccccc12)C(=O)N[C@H](CC(N)=O)C(=O)N[C@@H](CC(=O)O)C(=O)N[C@@H]1C(=O)NCC(=O)N[C@@H](CCCNC(=O)CN(CCCCNC(=O)c2cccc(O)c2O)C(=O)c2cccc(O)c2O)C(=O)N[C@@H](CC(=O)O)C(=O)N[C@H](C)C(=O)N[C@@H](CC(=O)O)C(=O)NCC(=O)N[C@H](CO)C(=O)N[C@@H](C(C)CC(=O)O)C(=O)N[C@@H](CC(=O)c2ccccc2N)C(=O)O[C@@H]1C (stereo not given in full)
MIC [5]: 0.2 µM (≈ 0.404 µg/mL) | MIC [6]: 0.2 µM (≈ 0.404 µg/mL) | MIC [7]: 0.2 µM (≈ 0.404 µg/mL) | MIC [8]: 0.2 µM (≈ 0.404 µg/mL) | MIC [9]: 0.2 µM (≈ 0.404 µg/mL) | MIC [10]: 0.2 µM (≈ 0.404 µg/mL) | MIC [11]: 0.2 µM (≈ 0.404 µg/mL) | MIC [12]: 0.2 µM (≈ 0.404 µg/mL) | MIC [13]: 0.2 µM (≈ 0.404 µg/mL) | MIC [14]: 0.2 µM (≈ 0.404 µg/mL) | MIC [15]: 0.2 µM (≈ 0.404 µg/mL) | MIC [16]: 0.2 µM (≈ 0.404 µg/mL) | MIC [17]: 0.2 µM (≈ 0.404 µg/mL) | MIC [18]: 0.2 µM (≈ 0.404 µg/mL)

CC(=O)Oc1cccc(C(=O)NCCCC(CCCNC(=O)c2cccc(OC(C)=O)c2OC(C)=O)(CCCNC(=O)c2cccc(OC(C)=O)c2OC(C)=O)NC(=O)CCC(=O)NC(C(=O)NC2C(=O)N3C2SC(C)(C)[C@@H]3C(=O)O)c2ccccc2)c1OC(C)=O (stereo not given in full)
MIC [19]: 0.05 µM (≈ 0.0647 µg/mL) | MIC [20]: 0.05 µM (≈ 0.0647 µg/mL) | MIC [21]: 0.05 µM (≈ 0.0647 µg/mL) | MIC [22]: 0.05 µM (≈ 0.0647 µg/mL)

C[C@@H](O)[C@H]1C(=O)N2C(C(=O)O)=C(S[C@H]3C[C@@H](C(=O)N(C)C)N(C(=O)CCCc4cn(CCOCCOCCOCCNC(=O)c5cc(O)c(O)c(C(=O)N[C@H]6COC(=O)[C@@H](NC(=O)c7cc([C@@H]8O[C@H](CO)[C@@H](O)[C@H](O)[C@H]8O)cc(O)c7O)COC(=O)[C@@H](NC(=O)c7cc([C@@H]8O[C@H](CO)[C@@H](O)[C@H](O)[C@H]8O)cc(O)c7O)COC6=O)c5)nn4)C3)[C@H](C)[C@H]12
MIC [23]: 0.01 µM | MIC [24]: 0.01 µM

Oc1nc2ccccc2nc1O
MIC [25]: > 59.2 µM

CC(=O)N(O)CCC[C@H](NC(=O)[C@H](CCCN(O)C(C)=O)NC(=O)[C@@H](N)CCCN(O)C(C)=O)C(=O)N[C@@H](CO)C(=O)N[C@@H](C(=O)O)[C@H](O)[C@H]1S[C@@H](n2cc/c(=N/C(N)=O)n(C)c2=O)[C@H](O)[C@H]1O (H-[Orn(N5-OH,N5-Ac)][Orn(N5-OH,N5-Ac)][Orn(N5-OH,N5-Ac)]S[X2]-OH)
MIC [26]: 0.063 µg/mL (≈ 0.0634 µM) | MIC [27]: 0.063 µg/mL (≈ 0.0634 µM) | MIC [28]: 0.063 µg/mL (≈ 0.0634 µM) | MIC [29]: 0.031 µg/mL (≈ 0.0312 µM)

CC(=O)N(O)CCCCNC(=O)[C@H](COC(=O)c1cccc(O)c1O)NC(=O)[C@H]1N=C(c2cc(CCCCC(=O)N[C@@H](C(=O)N[C@@H]3C(=O)N4C(C(=O)O)=C(Cl)CS[C@H]34)c3ccccc3)cc(O)c2O)O[C@@H]1C
MIC [30]: 0.5 µg/mL (≈ 0.481 µM)

CC1=C(C(=O)O)N2C(=O)[C@@H](NC(=O)[C@H](NC(=O)CCCc3cn(CCOCCOCCOCCNC(=O)c4cc(O)c(O)c(C(=O)N[C@H]5COC(=O)[C@@H](NC(=O)c6cccc(O)c6O)COC(=O)[C@@H](NC(=O)c6cccc(O)c6O)COC5=O)c4)nn3)c3ccccc3)[C@H]2SC1
MIC [23]: 0.01 µM | MIC [24]: 0.01 µM

CC(=O)Oc1cccc(C(=O)NCCCC(CCCNC(=O)c2cccc(OC(C)=O)c2OC(C)=O)(CCCNC(=O)c2cccc(OC(C)=O)c2OC(C)=O)NC(=O)CCC(=O)NC(C(=O)NC2C(=O)N3C2SC(C)(C)[C@@H]3C(=O)O)c2ccc(O)cc2)c1OC(C)=O (stereo not given in full)
MIC [19]: 0.05 µM (≈ 0.0655 µg/mL) | MIC [20]: 0.05 µM (≈ 0.0655 µg/mL) | MIC [21]: 0.05 µM (≈ 0.0655 µg/mL) | MIC [22]: 0.05 µM (≈ 0.0655 µg/mL)

CCCCCCCCCCN[C@@]1(C)C[C@H](O[C@H]2[C@H](Oc3c4cc5cc3Oc3ccc(cc3Cl)[C@@H](O)[C@@H](NC(=O)[C@@H](CC(C)C)NC)C(=O)N[C@@H](CC(N)=O)C(=O)N[C@H]5C(=O)N[C@H]3C(=O)N[C@H](C(=O)N[C@H](C(=O)NCCCNC(=O)[C@H](O)[C@@H](O)[C@H](O[C@H]5O[C@@H](CO)[C@@H](O)[C@@H](O)[C@@H]5O)[C@H](O)CO)c5cc(O)cc(O)c5-c5cc3ccc5O)[C@H](O)c3ccc(c(Cl)c3)O4)O[C@H](CO)[C@@H](O)[C@@H]2O)O[C@@H](C)[C@H]1O
MIC [1]: 0.2 µM (≈ 0.397 µg/mL) | MIC [2]: 0.2 µM (≈ 0.397 µg/mL) | MIC [3]: 0.2 µM (≈ 0.397 µg/mL) | MIC [4]: 0.2 µM (≈ 0.397 µg/mL)
